Results: PubChem BioAssay (NCI)
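96-well plates; 48 h exposure; 5 concentrations. Endpoints by linear interpolation between flanking doses. Not reached: highest tested concentration assigned. GI50 is the concentration that inhibits growth by half. TGI: total growth inhibition.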 Where a SMILES comes first, the peptide text is derived from it. [ ]: non-standard residue; d: D form. The star is where a group is joined. Cbz = O=C(OCc1ccccc1)*; Aib = CC(C)(N)C(=O)O

How the values were obtained:
Experiment in all cases: growth of human tumour cells (NCI), 48 h
M14 melanoma = test system: M14 melanoma
NCI-H23 lung = test system: NCI-H23 lung
TK-10 renal = test system: TK-10 renal
786-0 renal = test system: 786-0 renal
MOLT-4 leukemia = test system: MOLT-4 leukemia
NCI-H226 lung = test system: NCI-H226 lung
COLO 205 colon = test system: COLO 205 colon
OVCAR-5 ovarian = test system: OVCAR-5 ovarian
SF-295 CNS = test system: SF-295 CNS
PC-3 prostate = test system: PC-3 prostate
RPMI-8226 leukemia = test system: RPMI-8226 leukemia

SMILES	TGI (M14 melanoma)	TGI (NCI-H23 lung)	TGI (TK-10 renal)	TGI (786-0 renal)	TGI (MOLT-4 leukemia)	TGI (NCI-H226 lung)	TGI (COLO 205 colon)	TGI (OVCAR-5 ovarian)	TGI (SF-295 CNS)	TGI (PC-3 prostate)	TGI (RPMI-8226 leukemia)	GI50 (M14 melanoma)	GI50 (SF-295 CNS)	GI50 (NCI-H23 lung)	GI50 (PC-3 prostate)	GI50 (RPMI-8226 leukemia)	GI50 (NCI-H226 lung)	GI50 (OVCAR-5 ovarian)
CSc1nc(-c2ccccc2)nc(=[N+]2CCOCC2)s1	> 100 µM	> 100 µM	> 100 µM	> 100 µM	> 100 µM	> 100 µM	98.7 µM	> 100 µM	–	–	–	–	–	–	–	–	–	–
NS(=O)(=O)c1ccc(NCc2nc3ccccc3[nH]2)cc1	> 100 µM	> 100 µM	> 100 µM	> 100 µM	–	> 100 µM	> 100 µM	> 100 µM	> 100 µM	> 100 µM	–	–	–	–	–	–	–	–
Cc1cc(OCC(O)CO)ccc1Cl (configuration not stated)	> 100 µM	> 100 µM	> 100 µM	–	> 100 µM	> 100 µM	> 100 µM	> 100 µM	> 100 µM	–	> 100 µM	–	–	–	–	–	–	–
Cc1cc(O)c(C(C)C)cc1C(=S)Nc1ccc(Cl)cc1	–	17.7 µM	–	27.3 µM	19 µM	–	31.5 µM	28.3 µM	28.3 µM	23 µM	33 µM	–	–	–	–	–	–	–
COc1ccc(/C=C2\OC(=O)C(Cl)=C2c2ccc(OC)c(Cl)c2)cc1	76.9 µM	44.9 µM	45.6 µM	35.5 µM	> 100 µM	–	> 100 µM	90.5 µM	67.6 µM	> 100 µM	81.8 µM	–	–	–	–	–	–	–
CC1CN=C(c2ccc(CN3CCC(CCCC4CCN(Cc5ccc(C6=NCC(C)N6)cc5)CC4)CC3)cc2)N1 (configuration not stated)	> 100 µM	> 100 µM	> 100 µM	> 100 µM	50.1 µM	> 100 µM	33 µM	63 µM	> 100 µM	> 100 µM	–	–	–	–	–	–	–	–
N=C(N)c1ccc(-c2ccc(-c3ccc(Cl)cc3Cl)s2)nc1	3.63 µM	3.19 µM	–	–	–	28.4 µM	–	3.21 µM	3.24 µM	3.67 µM	5.42 µM	1.85 µM	1.74 µM	1.65 µM	1.86 µM	2.32 µM	5.02 µM	1.71 µM
CCOC(=O)CCC(NC(=O)c1ccc(Nc2nc3ccccc3nc2C(=O)OCC)s1)C(=O)OCC (configuration not stated)	> 100 µM	–	> 100 µM	> 100 µM	> 100 µM	> 100 µM	> 100 µM	> 100 µM	–	> 100 µM	> 100 µM	–	–	–	–	–	–	–
CCOP(=O)(Cc1nc(C#N)c(N)o1)OCC	–	–	> 100 µM	> 100 µM	> 100 µM	> 100 µM	> 100 µM	> 100 µM	> 100 µM	> 100 µM	> 100 µM	–	–	–	–	–	–	–
CCCCCCCCCCOc1ccc(N=Nc2nnc(-c3ccc(OCCCCC)cc3)s2)cc1	> 100 µM	> 100 µM	> 100 µM	> 100 µM	> 100 µM	–	> 100 µM	> 100 µM	> 100 µM	> 100 µM	> 100 µM	–	–	–	–	–	–	–
ClC1=C(Cl)C2OC3C=CCC3OC2C(Cl)=C1Cl (configuration not stated)	> 100 µM	> 100 µM	> 100 µM	> 100 µM	> 100 µM	> 100 µM	–	> 100 µM	> 100 µM	> 100 µM	66.4 µM	–	–	–	–	–	–	–
O=[N+]([O-])c1ccc(Nc2cccc3c2[nH]c2c(-c4ccccc4)nccc23)c([N+](=O)[O-])c1	–	> 100 µM	–	–	> 100 µM	> 100 µM	> 100 µM	> 100 µM	> 100 µM	–	> 100 µM	–	–	–	–	–	–	–
c1ccc(OCc2nnc(CCCCCCCCc3nnc(COc4ccccc4)o3)o2)cc1	> 100 µM	> 100 µM	> 100 µM	> 100 µM	> 100 µM	> 100 µM	> 100 µM	> 100 µM	> 100 µM	> 100 µM	–	–	–	–	–	–	–	–
O=S(=O)(O)c1cc(N=[N+]([O-])c2ccc(N=Nc3ccccc3)cc2S(=O)(=O)O)ccc1/C=C/c1ccc(N=[N+]([O-])c2ccc(N=Nc3ccccc3)cc2S(=O)(=O)O)cc1S(=O)(=O)O	–	> 100 µM	–	–	> 100 µM	> 100 µM	> 100 µM	> 100 µM	> 100 µM	–	> 100 µM	–	–	–	–	–	–	–
CC(C)(NC(=O)C(C)(C)NC(=O)OCc1ccccc1)C(=O)O (Cbz-[Aib]-[Aib]-OH)	> 100 µM	> 100 µM	> 100 µM	> 100 µM	> 100 µM	> 100 µM	–	> 100 µM	> 100 µM	> 100 µM	> 100 µM	–	–	–	–	–	–	–
Nc1ncc2c(n1)-c1ccccc1OC2	–	> 100 µM	–	–	> 100 µM	> 100 µM	> 100 µM	> 100 µM	> 100 µM	–	> 100 µM	–	–	–	–	–	–	–
